# From patent US20250228887A1, “OPHTHALMIC COMPOSITION” (ROHTO PHARMACEUTICAL CO., LTD., priority 2021, published 2025)
# Tests used:
# rabbits = experiment: Drought stress test using rabbits (first invention, Test Example 1); format: in vivo, Japanese white rabbits; details: 0.5 w/v % or 3 w/v % in saline, 100 μL per eye, eyelids open 3 hours; compared with Mw about 25,000; **p<0.01 Tukey; FIG. 1
# Procedure: Each test substance was prepared by dissolving sodium chondroitin sulfate having a weight-average-molecular weight of about 25,000 (commercially available from Maruha Nichiro Corporation; over-the-counter sodium chondroitin sulfate) or sodium chondroitin sulfate having a weight-average-molecular weight of about 56,000 (commercially available from Seikagaku Corporation; Grade N-K) so that the content was 0.5 w/v % or 3 w/v %, respectively, in a saline (commercially available from Otsuka Pharmaceutical Factory, Inc.).
# According to the method used by Nagano et al. (New Ophthalmology, 13(2), 267-270, 1996), rabbits divided into 5 groups (n=5) (Japanese white rabbits (commercially available from Kitayama Labes Co. Ltd.)) were subjected to general anesthesia, and then gloves with ring-shaped fingers were put on their left and right eyeballs and the eyelids were forcibly opened. […] After the cornea was removed from the ocular surface, the methylene blue dye was extracted, and the absorbance was measured using a microplate reader Multiskan GO (commercially available from Thermo Fisher Scientific) at 660 nm. Here, eye dryness caused corneal damage, and increased the amount of dye adhered to the cornea surface, and thus it could be evaluated that the higher the absorbance value, the drier the eyes were.
# [1] = system: human corneal epithelial cell line HCE-T cells; experiment: Cell dry test (first invention, Test Example 13); format: cell-based; details: 8, 13, 14 vs test solution 4; 11, 12 vs test solution 5; 1% vs 0.5%
# Procedure: Ophthalmic compositions were prepared according to a general method using the formulations shown in Table 12 and used as test solutions. The units of the components in Table 12 are w/v % unless specified in the table. 100 μL of human corneal epithelial cell line HCE-T cells at a concentration of 1×10^5 cells/mL was seeded in each well in a 96-well plate (commercially available from Corning Inc.), and cultured in a CO2 incubator set at 37° C., a humidity of 90%, and a concentration of 5% CO2 until the cells became confluent. […] After each ophthalmic composition was removed by suction from each well, drought stress was applied by leaving it in a clean bench for 20 minutes, and the number of viable cells was then evaluated. In order to evaluate the number of viable cells, 10 μL of a cell number measurement reagent (Cell counting kit-8, commercially available from Dojindo Molecular Technologies, Inc.) per 100 μL of the medium was put into each well, and culturing was performed under conditions of 37° C., 5% CO2, and a humidity of 90% for 2 to 3 hours, and measurement was then performed using an absorbance meter (commercially available from MOLECULAR DEVICES) at 450 nm. Here, the higher the value of the absorbance, the greater the number of viable cells.
substance,measurement,setting,value
sodium chondroitin sulfate,"absorbance at 660 nm of methylene blue dye extracted from the cornea (corneal damage caused by eye dryness), in words",rabbits,significantly lower absorbance
same,"number of viable cells after drought stress, comparison in words",[1],the number of viable cells significantly increased at 1%
